The text below walks through data of patent US8748575B2, “Therapeutic peptides” (Combimab, Inc., priority 2010, dated 2014).

The target of one assay is T1, GC-C (Mus musculus, UniProt Q3UWA6).
T1 construct: freshly prepared mouse intestine membranes; from tissue; host or cells: mouse intestine (membrane preparation)
T1 sequence (Q3UWA6 20-1072): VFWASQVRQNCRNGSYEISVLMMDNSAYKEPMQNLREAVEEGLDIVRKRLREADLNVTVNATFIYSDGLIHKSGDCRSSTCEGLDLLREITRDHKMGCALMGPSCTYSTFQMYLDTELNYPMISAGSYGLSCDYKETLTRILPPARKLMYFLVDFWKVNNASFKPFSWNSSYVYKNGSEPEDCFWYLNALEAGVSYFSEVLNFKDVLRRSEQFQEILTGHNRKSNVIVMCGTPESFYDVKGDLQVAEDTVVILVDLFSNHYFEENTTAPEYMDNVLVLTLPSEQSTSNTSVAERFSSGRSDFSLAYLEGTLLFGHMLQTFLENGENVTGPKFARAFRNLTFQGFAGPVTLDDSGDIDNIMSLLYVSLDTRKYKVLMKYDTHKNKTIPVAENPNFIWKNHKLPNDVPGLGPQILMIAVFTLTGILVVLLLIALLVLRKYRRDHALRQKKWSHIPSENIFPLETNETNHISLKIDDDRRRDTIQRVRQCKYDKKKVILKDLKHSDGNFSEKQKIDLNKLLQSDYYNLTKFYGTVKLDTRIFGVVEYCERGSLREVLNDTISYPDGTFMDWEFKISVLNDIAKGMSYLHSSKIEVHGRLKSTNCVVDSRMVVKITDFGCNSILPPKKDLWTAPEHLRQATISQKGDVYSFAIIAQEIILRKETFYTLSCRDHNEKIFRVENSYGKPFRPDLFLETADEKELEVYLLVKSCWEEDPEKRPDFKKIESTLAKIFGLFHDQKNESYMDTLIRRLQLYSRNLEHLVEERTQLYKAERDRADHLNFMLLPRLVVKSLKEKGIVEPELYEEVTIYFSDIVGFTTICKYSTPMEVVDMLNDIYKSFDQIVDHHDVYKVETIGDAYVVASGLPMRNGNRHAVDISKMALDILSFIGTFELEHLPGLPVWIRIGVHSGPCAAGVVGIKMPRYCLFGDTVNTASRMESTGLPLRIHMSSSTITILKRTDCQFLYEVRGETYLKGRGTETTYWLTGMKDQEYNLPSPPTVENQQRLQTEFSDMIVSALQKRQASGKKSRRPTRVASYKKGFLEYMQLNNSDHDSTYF
In words: Intestinal membrane 125I-STa competitive radioligand binding assay. Details: key to I-125 binding assay: 1+ (lowest activity/potency); ++: Results are graded from 1+ (lowest activity/potency) to 5+ (highest activity/potency); +++: Results are graded from 1+ (lowest activity/potency) to 5+ (highest activity/potency); ++++: Results are graded from 1+ (lowest activity/potency) to 5+ (highest activity/potency); +++++: 5+ (highest activity/potency). To be noted: graded activity/potency, mouse intestinal membranes. On the procedure: Intestinal membrane 1-125 labeled radioligand binding assay. The intestinal membrane radioligand binding assay was used to assess whether a novel compound could displace ^125I-STa from GC-C (Crane et al., 1992). Each analog was analyzed for its ability to displace ^125I-STa from GC-C in a competitive binding assay. ^125I-ST Displaced” was determined by co-incubating STa analogs (10 μM) with 50,000 DPM of ^125I-STa (1-18) in the presence of mouse intestinal membranes. The displacement (n=3) for each analog was determined relative to a vehicle control.
Membranes were prepared from freshly harvested mouse intestines by first washing away the blood or feces with ice-cold Dulbecco's PBS. Washed organs were minced with a single-edged razor blade, followed by homogenization on ice in 50 mM Tris, pH 7.6, containing 1 mM EDTA, 1 mM PMSF, 1 mM DTT. Debris was then removed by a 15 minute centrifugation at 3,000×G and 4° C. The supernatant is then passed through successively smaller needles (18 gauge through 25 gauge) and frozen at −70° C. until used as a tissue homogenate. If intended for use as isolated membranes, the above homogenate was centrifuged (100,000×G) at 4° C. for 1 hour while fresh and the pellet was re-suspended in homogenization buffer.
The assay was performed in 96 well filter plates which were pre-incubated overnight with 200 μl of 0.3% polyethylenimine (w/v) and washed three times by aspiration with 300 μl of Wash Buffer (150 mM NaCl, 20 mM Sodium Phosphate pH=7.2, 1 mM EDTA) immediately before use. Into each well of was added 50 μl of 3× Binding buffer (150 mM Tris-HCl pH=7.6, 1.98 mM Cysteamine, 0.3% Bacitracin, 1350 mM NaCl, 3 mM EDTA), 40 μl of double-distilled water, 10 μl of either double-distilled water or cold ligand (50 uM STa (5-18) in double-distilled water), 10 μl of increasing concentrations (125 DPM/ul to 50,000 DPM/ul) of radiolabeled 125I -STa (1-18) and finally 40 μl (approximately 2 mg protein/ml) of freshly prepared mouse intestine membranes. The plates were then incubated with mixing at 37 C for two hr, washed successively with six 200 μl aliquots of Wash Buffer and aspirated to dryness. The filter bottoms of each well were punched into individual borosilicate tubes and bound radioactivity determined in a gamma counter. Protein content was determined on an aliquot of the mouse intestine membranes used in the Biorad Protein Assay.

The next assay deals with T84 cells (GC-C). In words: Intact T84 cell cGMP accumulation assay. The arrangement: key to CGMP accumulation assay: 1+ (lowest activity/potency); ++: Results are graded from 1+ (lowest activity/potency) to 5+ (highest activity/potency); +++: Results are graded from 1+ (lowest activity/potency) to 5+ (highest activity/potency); ++++: Results are graded from 1+ (lowest activity/potency) to 5+ (highest activity/potency); +++++: 5+ (highest activity/potency). To be noted: for activity in the cGMP accumulation assay: FIG. 22, compared to STa peptide; for CGMP accumulation assay: graded activity/potency, T84 cells. It is filed as cell-based, Human. On the procedure:
The intact T84 cell assay was used to detect the accumulation of cGMP, the product of agonism, upon interaction with a compound (Visweswariah et al., 1992). Human colorectal adenocarcinoma T84 cells were grown to confluence in a 24 well plate using DMEM/F12 medium supplemented with 10% FBS. The media was aspirated from each well and the cells were washed three times with Dulbecco's PBS (1×, no Ca2+ or Mg2+). The cells were then incubated for 30 minutes at 37° C. with 1 mM […] (IBMX) in Optimem medium (no FBS), either with or without potential antagonists. After incubation under these conditions, a 10× concentrated stock of a known GC-C agonist (e.g., STa (5-18)) in PBS was added to each well and the incubation continued for an additional 15 min at 37° C.
The reaction was stopped by the addition of 200 μL of Passive Lysis Buffer (Promega) to each well. The supernatant was removed for cGMP quantitation by RIA using ^125I-labeled cGMP 54 antibody relative to an external cGMP standard curve. The cells were scraped from the surface for protein content determination using a BioRad Protein Assay.

Residues, ends and D or L forms follow the SMILES beside them.

Turning to `C[C@@H]1NC(=O)[C@@H]2CCCN2C(=O)[C@H](CC(N)=O)NC(=O)[C@@H]2CSSC[C@H](N)C(=O)N[C@H]3CSSC[C@H](NC1=O)C(=O)N[C@@H]([C@@H](C)O)C(=O)NCC(=O)N[C@H](C(=O)N[C@@H](Cc1ccc(O)cc1)C(=O)O)CSSC[C@H](NC(=O)[C@H](Cc1ccc(O)cc1)NC(=O)[C@H](CCC(=O)O)NC3=O)C(=O)N2` [Linaclotide, H2N Cys Cys Glu Tyr Cys Cys Asn Pro Ala Cys Thr Gly Cys Tyr COOH] (HELM PEPTIDE1{C.C.E.Y.C.C.N.P.A.C.T.G.C.Y}$PEPTIDE1,PEPTIDE1,1:R3-6:R3|PEPTIDE1,PEPTIDE1,2:R3-10:R3|PEPTIDE1,PEPTIDE1,5:R3-13:R3$$$V2.0), at GC-C, the I-125 binding assay entry is “+++”. Moreover, in the assay on T84 cells (GC-C), the “activity in the cGMP accumulation assay” value is “lower than the STa peptide” and the CGMP accumulation assay result was “+++”. The “activity in the cGMP accumulation assay” value in the assay on T84 cells (GC-C) (second experiment) is on record as “lower than the STa peptide”.

On to “H2N Asn Thr Phe Tyr Cys Cys Glu Leu Cys Cys Asn Pro Ala Cys Ala Gly Cys Tyr COOH [STa(1-18)]”, for which the I-125 binding assay entry at GC-C is given as “+++”. Further, the CGMP accumulation assay result in the assay with T84 cells (GC-C) was “++++”.
